Assay results reported in the NIST ThermoML archive (doi:10.1021/je700260f).

Settings: 333.15 K, Liquid, Vibrating tube method

FC(C(F)(F)F)C(F)(F)F [1,1,1,2,3,3,3-heptafluoropropane]
Settings	mass density [kg/m3]
14224 kPa	1356.7
14266 kPa	1357
14291 kPa	1357.2
14328 kPa	1357.4
14371 kPa	1357.7
14400 kPa	1357.8
14435 kPa	1358.2
14458 kPa	1358.3
14483 kPa	1358.5
14514 kPa	1358.6
14545 kPa	1358.8
14575 kPa	1359.1
14609 kPa	1359.3
14631 kPa	1359.4
14665 kPa	1359.7
14691 kPa	1359.8
14717 kPa	1360
14746 kPa	1360.2
14768 kPa	1360.3
14798 kPa	1360.5
15205 kPa	1363.1
15236 kPa	1363.4
15290 kPa	1363.8
15717 kPa	1366.6
15745 kPa	1366.7
15780 kPa	1366.8
15812 kPa	1367.1
15836 kPa	1367.2
15868 kPa	1367.4
15899 kPa	1367.6
15926 kPa	1367.8
16438 kPa	1370.9
16464 kPa	1371.3
16489 kPa	1371.4
16519 kPa	1371.5
16626 kPa	1372.2
16683 kPa	1372.5
16707 kPa	1372.8
16730 kPa	1372.7
16761 kPa	1373
17906 kPa	1379.9
17932 kPa	1379.9
17962 kPa	1380.3
17993 kPa	1380.3
18015 kPa	1380.5
18050 kPa	1380.7
18080 kPa	1380.9
18108 kPa	1381
19508 kPa	1388.9
19537 kPa	1389
19563 kPa	1389.2
19597 kPa	1389.4
19624 kPa	1389.6
19650 kPa	1389.8
19677 kPa	1389.8
20749 kPa	1395.7
20777 kPa	1395.9
20814 kPa	1396
20842 kPa	1396.2
20873 kPa	1396.4
20901 kPa	1396.5
20931 kPa	1396.6
20957 kPa	1396.9
20979 kPa	1396.9
21008 kPa	1397
21033 kPa	1397.1
21063 kPa	1397.3
21088 kPa	1397.5
21120 kPa	1397.5
21148 kPa	1397.8
21172 kPa	1397.9
21205 kPa	1398
21229 kPa	1398.2
21270 kPa	1398.3
21296 kPa	1398.6
21327 kPa	1398.7
21360 kPa	1398.9
21397 kPa	1399.2
21645 kPa	1400.3
21675 kPa	1400.5
21704 kPa	1400.7
21740 kPa	1400.8
21764 kPa	1401
21831 kPa	1401.4
21897 kPa	1401.7
21932 kPa	1401.8
22798 kPa	1406.2
22829 kPa	1406.3
22856 kPa	1406.5
22880 kPa	1406.7
22918 kPa	1406.7
22954 kPa	1407
23854 kPa	1411.4
25147 kPa	1417.6
25181 kPa	1417.7
25224 kPa	1417.9
25251 kPa	1417.9
25279 kPa	1418.1
25312 kPa	1418.3
25354 kPa	1418.4
25387 kPa	1418.6
25415 kPa	1418.7
26099 kPa	1421.9
26128 kPa	1422
26167 kPa	1422.2
26201 kPa	1422.2
26234 kPa	1422.6
26257 kPa	1422.6
26527 kPa	1423.9
26563 kPa	1423.8
26596 kPa	1424.2
26625 kPa	1424.4
26654 kPa	1424.4
26692 kPa	1424.5
26726 kPa	1424.8
26760 kPa	1424.8
26801 kPa	1425
26831 kPa	1425.1
26860 kPa	1425.4
26889 kPa	1425.4
26914 kPa	1425.6
26943 kPa	1425.8
26972 kPa	1425.8
26999 kPa	1425.9
27023 kPa	1426
27056 kPa	1426.1
27081 kPa	1426.2
27119 kPa	1426.4
27151 kPa	1426.6
27180 kPa	1426.6
27621 kPa	1428.6
27651 kPa	1428.9
27681 kPa	1428.9
27707 kPa	1428.9
27750 kPa	1429.2
27783 kPa	1429.3
27818 kPa	1429.5
27852 kPa	1429.7
27890 kPa	1429.9
27916 kPa	1430
27950 kPa	1430.1
27975 kPa	1430.2
28484 kPa	1432.4
28514 kPa	1432.5
28543 kPa	1432.6
28577 kPa	1432.8
28602 kPa	1432.9
28633 kPa	1433
28668 kPa	1433.1
28698 kPa	1433.3
28730 kPa	1433.3
28761 kPa	1433.5
28792 kPa	1433.6
28833 kPa	1433.9
28866 kPa	1434
28892 kPa	1434.1
28917 kPa	1434.2
28956 kPa	1434.4
28982 kPa	1434.4
29008 kPa	1434.6
29042 kPa	1434.7
29069 kPa	1434.8
29104 kPa	1434.9
29132 kPa	1435.2
29171 kPa	1435.3
29206 kPa	1435.5
29233 kPa	1435.5
29267 kPa	1435.7
29293 kPa	1435.7
29326 kPa	1435.9
29364 kPa	1436.1
29400 kPa	1436.2
29434 kPa	1436.4
29694 kPa	1437.4
29758 kPa	1437.7
30086 kPa	1439
30149 kPa	1439.4
30189 kPa	1439.6
30299 kPa	1440
30336 kPa	1440.1
30372 kPa	1440.3
30402 kPa	1440.3
30439 kPa	1440.7
30461 kPa	1440.7
30493 kPa	1440.8
30521 kPa	1440.9
30557 kPa	1441.1
30586 kPa	1441.1
30623 kPa	1441.3
30650 kPa	1441.3
30690 kPa	1441.5
30717 kPa	1441.7
30753 kPa	1441.8
30780 kPa	1441.9
30816 kPa	1442.1
30843 kPa	1442
30884 kPa	1442.3
30925 kPa	1442.4
32911 kPa	1450.4
32943 kPa	1450.4
32981 kPa	1450.6
33028 kPa	1450.9
33066 kPa	1451
33093 kPa	1451.1
33132 kPa	1451.1
